Laboratory results from patent US9872514B2, “Compounds, compositions, and methods for reducing or eliminating bitter taste” (Chromocell Corporation, priority 2010, dated 2018).
Where two headings read alike, the source gives them in different places.

Columns and labels:
Assay type in all cases: in vivo, humans
[1] = test system: bitter taste of an aqueous solution of KCl; assay: Sip and spit bitterness rating of aqueous KCl test solutions; settings: Homo sapiens, aqueous KCl 4.85 g/L, 1% EtOH, bitterness scored 0-15 vs KCl standard, dash = none of the tested conc.
Experimental: An amount of this stock compound solution is then added to an aqueous KCl solution. Enough EtOH is then added to the resulting stock compound/KCl solution so that the final KCl test solution contains 1% EtOH. KCl solution standards were similarly prepared by dissolving various amounts of KCl in water and ethanol without adding any test compound.
The effect of the test compounds an the perception of the bitter taste of an aqueous solution of KCl in humans was evaluated using a “sip and spit” test as follows.
(§1) A set of KCl solution standards was developed and each standard solution was assigned a bitterness taste score of 0-15 (corresponding to aqueous KCl concentrations of 0 mM-120 mM). Panelists were trained to recognize these standards. In addition, before each day of testing, panelists were tested to see if they could determine differences in taste between the standard solutions. If a panelist was unable to recognize a change in KCl concentration, they were excluded from the panel for that day.
(§2) In a blind taste test, panelists were asked to compare the bitter taste of a small quantity (e.g., 8 ml) of each of the KCl Test Solutions to the taste of a KCl solution standard, without swallowing (see, e.g., Table 1). Specifically, panelists were asked to rate the bitterness of each KCl Test Solution on a scale of 0-15 using the same scale developed for the KCl solution standards. Each sample was tested in 2-4 discrete taste test experiments. Panelists were asked to rinse with water, eat a cracker, and wait approximately 10 minutes between samples.

[2] = test system: bitter taste of an aqueous solution of potassium lactate; assay: Sip and spit bitterness rating of aqueous potassium lactate test solutions; settings: Homo sapiens, aqueous potassium lactate 41 g/L, 1% EtOH, dash = none of the tested conc.
Experimental: as §1, §2
Edible potassium lactate solution compositions (“potassium lactate test solutions”) were prepared by first dissolving varying amounts of the test compounds in an amount of ethanol or water (depending on the solubility of the compound) to create a 5 mg/mL stock compound solution. An amount of this stock compound solution is then added to an aqueous potassium lactate solution. Enough EtOH is then added to the resulting stock compound/potassium lactate solution so that the final potassium lactate test solution contains 1% EtOH. Potassium lactate solution standards were similarly prepared by dissolving various amounts of potassium lactate in water and ethanol without adding any test compound.
The effect of the test compounds on the perception of the bitter taste of an aqueous solution of potassium lactate in humans was evaluated using the “sip and spit” test described in Example 2.

[3] = test system: bitter taste of an aqueous solution of KCl; assay: Latin Square-2AFC sip and spit test of aqueous KCl solutions; settings: Homo sapiens, aqueous KCl 4.85 g/L, Latin Square-2AFC vs KCl standard, dash = none of the tested conc.
Experimental: The effect of the test compounds on the perception of the bitter taste of an aqueous solution of KCl in humans was evaluated using a “sip and spit” test using a Latin Square-2AFC testing method as follows.
In a blind taste test, panelists were asked to compare the bitter taste of a small quantity (e.g., 8 ml) of a KCl Test Solution to the taste of a KCl solution standard (prepared as described in Example 1), without swallowing. NaCl solution standards were prepared as described in Example 1.
In order to eliminate any effects of sample order, a complete Latin Square design was employed so that each possible order of sample presentation was utilized across subjects. Each sample was tested in several discrete taste test experiments. Panelists were asked to rinse with water, eat a cracker, and wait about 10 minutes between samples. In each case, the panelists were asked to choose the sample which tasted “less bitter.” Illustrative results of the aqueous solution Latin Square-2AFC testing are presented in Table 5.

[4] = test system: bitter taste of KCl foodstuff slurries; assay: Latin Square-2AFC sip and spit test of KCl turkey slurry; settings: 1.6% KCl, dash = none of the tested conc.
Experimental: The effect of the test compounds on the perception of the bitter taste of KCl foodstuff slurries in humans was evaluated using a “sip and spit” test using a Latin Square-2AFC testing method as follows.
In a blind taste test, panelists received two portions of turkey slurry—one portion being the KCl foodstuff slurry standard and the other being one of the KCl test foodstuff slurries (prepared as described in Example 5). NaCl foodstuff slurry standards were prepared as described in Example 1.
(§3) The panelists tasted each of the portions by sipping and spitting. In order to eliminate any effects of sample order, a complete Latin Square design was employed so that each possible order of sample presentation was utilized across subjects. Each sample was tested in several discrete taste test experiments. Panelists were asked to rinse with water, eat a cracker, and wait about 10 minutes between samples. In each case, the panelists were asked to choose the sample that tasted less bitter.

[5] = test system: bitter taste of KCl in solid-matrix foodstuffs; assay: Latin Square-2AFC chew and spit test of KCl solid turkey; settings: Homo sapiens, 1.6% KCl (80% KCl:20% NaCl marinade), dash = none of the tested conc.
Experimental: The effect of the test compounds on the perception of the bitter taste of KCl in solid-matrix foodstuffs in humans was evaluated using a “chew and spit” test using a Latin Square-2AFC testing method as follows.
Two types of marinades containing Prague powder, sugar, Evian™ water, KCl and/or NaCl in water were prepared. One marinade contained 80% KCl, 20% NaCl (by weight) (i.e., marinade concentration of […]). A second marinade contained 60% KCl:40% NaCl (by weight) (i.e., marinade concentration of 1.2% KCl). Compound stock solutions were prepared by dissolving an amount of test compound in ethanol or water (depending on the solubility of the compound) to create a 5 mg/mL stock compound solution. Enough ethanol was added to each stock compound solution to generate a final stock compound solution containing 1% ethanol. The marinade, the stock compound solution and ground turkey were added to a mixing bowl, mixed at low-speed for about 2 minutes, and then mixed at high-speed for about 5 minutes. The marinated turkey mixture was divided into one pound aliquots, vacuum sealed into food saver bags, and allowed to marinate for about 2 hours in a refrigerator. The vacuum-sealed turkey was then cooked in an about 86° C. water bath for about 30 minutes. If after about 30 minutes, the internal turkey temperature had not reached about 170° F., the vacuum-sealed turkey was cooked for about an additional 5 minutes. The vacuum-sealed turkey was then refrigerated for about two weeks before taste testing. KCl standards were similarly prepared by dissolving KCl in the marinade without adding any test compound during the turkey preparation.
as §3, with “tasted” for “tasted each of the”, “by chewing” for “by sipping”, “Each simple” for “Each sample”, “water, cat” for “water, eat”

[6] = test system: bitter taste of KCl foodstuff slurries; assay: Two-alternative forced choice (2AFC) sip and spit test of KCl turkey foodstuff slurries; settings: Homo sapiens, turkey slurry, 1.6% KCl, 2AFC vs KCl slurry standard, dash = none of the tested conc.
Experimental: Edible KCl food compositions (“KCl test foodstuff slurries”) were prepared as follows. Dehydrated, salt-free turkey powder was weighed and mixed with various amounts of KCl and/or NaCl and then solubilized with boiling water to create a homogenized solubilized turkey slurry. Varying amounts of the test compounds were dissolved in an amount of ethanol or water (depending on the solubility of the compound) to create a 5 mg/mL stock compound solution. An amount of this stock compound solution was then added to the turkey slurry. Enough EtOH is then added to the resulting stock compound/turkey slurry so that the slurry contains 1% EtOH. The slurry was again homogenized by boiling and mixing and allowed to cool to yield the final KCl test foodstuff slurry for taste testing KCl foodstuff slurry standards were similarly prepared without any test compound.
The effect of the test compounds on the perception of the bitter taste of KCl foodstuff slurries in humans was evaluated using a two-alternative-forced-choice “sip and spit” test as follows.
(§4) In a blind taste test, panelists received two portions of turkey slurry—one portion being the KCl foodstuff slurry standard and the other being one of the KCl test foodstuff slurries (each prepared as described in Example 5). The panelists tasted each of the portions by sipping and spitting. Each sample was tested in 2-4 discrete taste test experiments. Panelists were asked to rinse with water, eat a cracker, and wait about 10 minutes between samples. In each case, the panelists were asked to compare the bitter taste of the two turkey samples to each other (i.e., panelists were asked to indicate which sample was less bitter).

[7] = test system: bitter taste of potassium lactate foodstuffs; assay: 2AFC sip and spit test of potassium lactate turkey foodstuff slurries; settings: turkey slurry, 4.5% potassium lactate, 2AFC vs standard; dash = none of the tested conc.
Experimental: as §4
Edible potassium lactate food compositions (“potassium lactate test foodstuff slurries”) were prepared as follows. Dehydrated, salt-free turkey powder was weighed and mixed with various amounts of potassium lactate and/or sodium lactate and then solubilized with boiling water to create a homogenized solubilized turkey slurry. Varying amounts of the test compounds were dissolved in an amount of ethanol or water depending on the solubility of the compound) to create a 5 mg/mL stock compound solution. An amount of this stock compound solution was then added to the turkey slurry. Enough EtOH is then added to the resulting stock compound/turkey slurry so that the final slurry contains 1% EtOH. The final slurry was again homogenized by boiling and mixing and allowed to cool to yield the final slurry for taste testing. Potassium lactate foodstuff slurry standards were similarly prepared without any test compound.
The effect of the test compounds on the perception of the bitter taste of potassium lactate foodstuffs in humans was evaluated using the two-alternative-forced-choice “sip and spit” test described in Example 6.

[8] = read-out: Conc. Where Decrease in Bitter Taste Discerned and p ≦ 0.1
[9] = read-out: Conc. Where Decrease in Bitter Taste Was Discerned
[10] = read-out: Conc. at Which At Least 50% of Panelist Discerned Decrease in Bitter Taste
[11] = read-out: Conc. at Which At Least 50% of Panelist Discerned Decrease in Bitter Taste and p ≦ 0.1

| Structure (SMILES) | minimal effective concentration [1, 8] [µg/mL] | minimal effective concentration [2, 9] [µg/mL] | minimal effective concentration [2, 8] [µg/mL] | minimal effective concentration [5, 11] [µg/mL] | other results |
| --- | --- | --- | --- | --- | --- |
| C/C=C/C(=O)C1C(C)=CCCC1(C)C (stereo not shown) [Compound 2] | 10 | 1 |  |  | minimal effective concentration [3, 10]: 2 µg/mL; Conc. at Which At Least 50% of Panelist Discerned Decrease in Bitter Taste [4]: 25 ppm; minimal effective concentration [5, 10]: 10 µg/mL |
| CCC(=O)OCCC(C)CCC=C(C)C (stereo not shown) [Compound 10] | 1 | 0.1 |  |  | minimal effective concentration [6, 10]: 0.1 µg/mL; minimal effective concentration [5, 10]: 0.5 µg/mL |
| CC(C)=CCCC(C)CCOC(=O)C(C)C (stereo not shown) [Compound 11] | 10 |  |  |  | minimal effective concentration [3, 10]: 1 µg/mL |
| CCC(=O)OC/C=C(\C)CCC=C(C)C [Compound 22] | 1 |  | 1 |  | minimal effective concentration [3, 11]: 0.25 µg/mL |
| CC(C)=CCC/C(C)=C/COC(=O)Cc1ccccc1 [Compound 26] | 1 | 10 | 10 |  | Conc. at Which At Least 50% of Panelist Discerned Decrease in Bitter Taste [4]: 0.6 ppm |
| CC(C)=CCC/C(C)=C\CO [Compound 31] | 10 |  | 10 | 4 | minimal effective concentration [6, 10]: 10 µg/mL |
| CC(C)=CCC/C(C)=C\COC(=O)C(C)C [Compound 34] |  |  | 1 |  | minimal effective concentration [5, 10]: 2 µg/mL |
| CC(=O)OC/C=C(\C)CCC[C@H](C)CCC[C@H](C)CCCC(C)C [Compound 41] | 10 | 5 |  | 2.5 | minimal effective concentration [1, 9]: 10 µg/mL; minimal effective concentration [3, 11]: 1 µg/mL |
| O=C1CCc2ccccc2O1 [Compound 53] | 10 | 10 | 10 |  | Conc. at Which At Least 50% of Panelist Discerned Decrease in Bitter Taste [7]: 5 ppm; minimal effective concentration [3, 10]: 1 µg/mL |
| OCc1ccc(O)cc1 [Compound 69] | 1 |  |  | 1 | minimal effective concentration [6, 11]: 10 µg/mL |
| CC12CCC(CC1=O)C2(C)C (stereo not shown) [Compound 74] |  | 1 | 1 | 10 | minimal effective concentration [6, 10]: 10 µg/mL; Conc. at Which At Least 50% of Panelist Discerned Decrease in Bitter Taste [7]: 1 ppm; minimal effective concentration [3, 11]: 1 µg/mL |
| CCC1(O)C2(C)CCC(C2)C1(C)C (stereo not shown) [Compound 85] | 1 | 5 | 5 | 1 | minimal effective concentration [3, 10]: 0.005 µg/mL |
| COc1ccc2c(=O)cc(-c3ccccc3)oc2c1 [Compound 95] |  |  | 1 |  | Conc. at Which At Least 50% of Panelist Discerned Decrease in Bitter Taste and p ≦ 0.1 [7]: 10 ppm |
| C[C@H]1CC[C@@H](C(C)(C)O)CC2=C1CC[C@@H]2C [Compound 120] |  |  |  |  | minimal effective concentration [6, 10]: 10 µg/mL; Conc. at Which At Least 50% of Panelist Discerned Decrease in Bitter Taste [7]: 10 ppm |
